Reference: patent US3974277A, “2-[2-(5-Nitro-2-furyl)vinyl]-4-(anilino)quinazolines as growth promotants and feed efficiency enhancing agents” (Diamond Shamrock Corporation, priority 1975, dated 1976)
Positions of bridges follow the written chain, without caps; N, C: chain ends. Non-standard residues stand in square brackets, D forms with d. Residues, ends and D or L forms follow the SMILES beside them. *: point of attachment. Ileψ(thiazoline)Cys = CC[C@H](C)[C@H](N)C1=N[C@H](C(=O)*)CS1; dOrn = NCCC[C@@H](N)C(=O)O

Key:
[1] = Chick growth promotion and feed efficiency at low levels, Example VIII (Table II); format: in vivo, broiler cross chicks
Text: Day old broiler cross chicks were weight equalized into groups of 8 chicks each and were placed in battery brooders. The 32 chick treatment groups (4 replicates) were fed one of the five rations described below for a 4 week period. Weekly measurements of body weights and feed consumption were made by replicate, and these measurements used to calculate weight gain and feed efficiency.
The basal ration was the basal ration used in Example VII above. The remaining five rations were obtained by mixing the indicated quantities by bacitracin (4 g/T), chlortetracycline (10 g/T), product of Example I (10 g/T), and product of Example III of U.S. Pat. No. 3,542,784 -- Burch (10 g/T) as growth promotants with the basal ration.

[2] = Chick growth promotion comparison, Example XI (Table V); format: in vivo, broiler cross chicks; details: 25 g/T, 4 weeks
Text: The growth promotion tests described in Example X were repeated with the exception that five replicates of 8 chicks each were fed the formulations described in Table V for 4 weeks.

[3] = Swine growth rate and feed efficiency, Example XIII (Table VIII); format: in vivo, weanling pigs; details: 25 g/T
Text: Thirty-six weanling pigs weighing approximately 30 pounds each in good physical condition and originating from a common source were used in these tests. The pigs were allocated into sex and weight equalized pens of six pigs each. A 1 week period was allowed for acclimatization before testing. Three replicates of six pigs were fed the basal ration described below, and three replicates were fed the same basal ration supplemented with 25 g/T of the product of Example I.
The basal ration was a 17% commercial corn-soya pelletized formulation which was free of antibiotic and drug components. Composition of the basal ration formulation was: […]
The rations were offered ad libitum from 6 bushel self-feeders with a continuous supply of fresh water. The same ration formulations were used throughout the 6 week feeding period. Individual pig weighing were made after 0, 2, 4 and 6 (termination) week periods. Feed consumption records were kept on a pen basis, with feed efficiency conversion being compiled at the end of the 2nd, 4th and 6th (termination) week of feeding. Complete morbidity and mortality records were kept.

[4] = tested on: Vibrio coli; test: Bactericide test, agar growth inhibition; format: cell-based; details: vs chlortetracycline
Text: (§1) Test formulations were examined for bactericidal and/or bacteriostatic activity against the test organisms shown in Tables A and B. These organisms were chosen as being representative of commercially important pathogens affecting animal agriculture. The antibiotic chlortetracycline was chosen as a positive control, since it has a broad spectrum of activity against a large number of organisms, and its activity can be used for comparative purposes.
(§2) Basic test formulations of the product of Examples I, II, III, and of chlortetracycline were prepared by dissolving 16 mg (0.016 g) in 2.0 ml of stock emulsifier solution (0.25% Triton X-155 in acetone by volume) and making each solution up to 50 ml with deionized water. The concentration of the test compound in the basic formuation was 320 ppm. Lower concentrations of the test compound were obtained by diluting the basic formulation with a 4% solution of the stock emulsifier in deionized water so that each dilution in the series differed only in test compound content.
(§3) Nutrient-tryptic soy agar (NTA) consisting of 2.0% Difco Bactoagar 0.8% nutrient broth (Difco), and 0.5% tryptic soy broth (Difco) was prepared and sterilized by autoclaving. A 2 ml aliquot of each test formulation was added to 8 ml of molten NTA. This mixture was then plated in a sterile polystyrene petri dish (100 × 15 mm). After the agar was set, suspensions of each of the test organisms were simultaneously streaked into the surface of the agar. The inoculated plates were incubated for 48 hr at 28°C. The inhibition of growth of each organism was rated by visual comparison with the organism developing on non-treated agar. Growth inhibition reported as per cent control was rated in three categories as follows: 0% control, growth equivalent to that on non-treated agar; 50% control, sparse development and separated colonies; 100% control, no visible growth or development of colonies.

[5] = tested on: Erysipelothrix rhusiopathiae; test: Bactericide test, agar growth inhibition; format: cell-based; details: vs chlortetracycline
Text: as §1, §2, §3

[6] = tested on: Bordetella bronchiseptica; test: Bactericide test, agar growth inhibition; format: cell-based; details: vs chlortetracycline
Text: as §1, §2, §3

[7] = tested on: Streptococcus group E; test: Bactericide test, agar growth inhibition; format: cell-based; details: vs chlortetracycline
Text: as §1, §2, §3

[8] = tested on: Streptococcus agalactiae; test: Bactericide test, agar growth inhibition; format: cell-based; details: vs chlortetracycline
Text: as §1, §2, §3

[9] = Chick growth promotion, Example XII repeat test (Table VII); format: in vivo, broiler cross chicks; details: second set of tests, 25 g/T
Text: (§4) The growth promotion tests described in Example X were repeated with the additional testing the products of Examples II and III.

[10] = tested on: Streptococcus faecalis; test: Bactericide test, agar growth inhibition; format: cell-based; details: vs chlortetracycline
Text: as §1, §2
as §3, with “colonies. […]” for “colonies.”

[11] = Chick growth promotion, Example XII first test (Table VI); format: in vivo, broiler cross chicks; details: first set of tests, 25 g/T
Text: as §4

[12] = Chick growth promotion titration dosage, Example IX (Table III); format: in vivo, broiler cross chicks
Text: The concentrations used in this test were 6.25, 12.5, 25, 50, 100, 200 and 400 g of the Product of Example I per ton of the Basal Ration described in Example VII above. The same number and size chick treatment groups were used in this test as in Example VIII above.

[13] = Chick growth promotion comparison, Example X (Table IV); format: in vivo, broiler cross chicks; details: 25 g/T
Text: This example compares growth promotion activity of the product of Example I with other growth promotants at a concentration of 25 g/T in the Basal Ration described in Example VII. The other growth promotants include the product described in Example I of U.S. Pat. No. 3,542,784 -- Burch and quinoxaline-1,4-dioxide. Day old broiler cross chicks were weight equalized into groups of 8 chicks each, and four replicates of 8 chicks each were fed the experimental rations over a 4 week period.

CC[C@H](C)[C@H](N)C1=N[C@H](C(=O)N[C@@H](CC(C)C)C(=O)N[C@H](CCC(=O)O)C(=O)N[C@H](C(=O)N[C@H]2CCCCNC(=O)[C@H](CC(N)=O)NC(=O)[C@@H](CC(=O)O)NC(=O)[C@H](Cc3cnc[nH]3)NC(=O)[C@@H](Cc3ccccc3)NC(=O)[C@H]([C@@H](C)CC)NC(=O)[C@@H](CCCN)NC2=O)[C@@H](C)CC)CS1 [Bacitracin] ({Ileψ(thiazoline)Cys}-L[dE]IK[dOrn]I[dF]H[dD]N; lactam 4-C)
Improved Response Over Basal Ration, Feed Efficiency ([1]; 4 g/T, 4 weeks): +1.2%
Improved Response Over Basal Ration, Gain ([1]; 4 g/T, 4 weeks): -2.3%
Improved Response Over Basal Ration, Feed Efficiency [2]: +3.1%
Improved Response Over Basal Ration, Gain [2]: +1.2%

O=[N+]([O-])c1ccc(C=Cc2nc(Nc3ccc(O)cc3)c3ccccc3n2)o1 [Example I, 2-[2-(5-nitro-2-furyl)vinyl]-4-(p-hydroxyanilino)quinazoline]
growth and feed efficiency (in words) [3]: very substantial growth improvement and enhanced feed efficiency
growth promotion (in words) ([1]; low levels in feed): greater growth promotion than any of the other growth promotants
effectiveness compared with chlortetracycline [4]: considerably more effective
effectiveness compared with chlortetracycline [5]: considerably more effective
effectiveness compared with chlortetracycline [6]: considerably more effective
effectiveness compared with chlortetracycline [7]: considerably more effective
effectiveness compared with chlortetracycline [8]: considerably more effective
effect on growth rate and feed efficiency (in words) [9]: moderate improvements in production parameters in both tests
effectiveness compared with chlortetracycline [10]: considerably more effective
effect on growth rate and feed efficiency (in words) [11]: moderate improvements in production parameters in both tests
weight gain (in words) ([12]; 100 g/T): unexplained absence of weight gain improvement
activity (in words) ([12]; 400 g/T): sharp downturn

O=[N+]([O-])c1ccc(C=Cc2nc(Nc3cccc(O)c3)c3ccccc3n2)o1 [Example II, 2-[2-(5-nitro-2-furyl)vinyl]-4-(m-hydroxyanilino)quinazoline]
effectiveness compared with chlortetracycline [4]: considerably more effective
effectiveness compared with chlortetracycline [5]: considerably more effective
effectiveness compared with chlortetracycline [6]: considerably more effective
effectiveness compared with chlortetracycline [7]: considerably more effective
effectiveness compared with chlortetracycline [8]: considerably more effective
effectiveness compared with chlortetracycline [10]: considerably more effective
effect on growth rate and feed efficiency (in words) [11]: moderate improvements

O=[N+]([O-])c1ccc(-c2nc(Nc3ccc(O)cc3)c3ccccc3n2)o1 [Example III of U.S. 3,542,784 - Burch, 2-(5-nitro-2-furyl)-4-(p-hydroxyanilino)quinazoline, reference compound]
effect on growth rate and feed efficiency (in words) [9]: essentially no effect on growth rate or feed efficiency in either test
effect on growth rate and feed efficiency (in words) [11]: essentially no effect on growth rate or feed efficiency in either test

O=[N+]([O-])c1ccc(C=Cc2nc(Nc3ccccc3)c3ccccc3n2)o1 [Example IV, 2-[2-(5-nitro-2-furyl)vinyl]-4-anilinoquinazoline]
effectiveness compared with chlortetracycline [4]: considerably more effective
effectiveness compared with chlortetracycline [5]: considerably more effective
effectiveness compared with chlortetracycline [6]: considerably more effective
effectiveness compared with chlortetracycline [7]: considerably more effective
effectiveness compared with chlortetracycline [8]: considerably more effective
effectiveness compared with chlortetracycline [10]: considerably more effective

[O-][n+]1cc[n+]([O-])c2ccccc21 [Quinoxaline-1,4-dioxide, quinoxaline-1,4-dioxide]
response in growth rate and feed efficiency (in words) [13]: did not have any apparent effect
